In patent US20250205162A1, “SYSTEMS AND METHODS FOR SMALL MOLECULE ENCAPSULATION” (Tecton Group, LLC, priority 2022, published 2025) one finds pH in water and safe daily use data, which are given here for 3 compounds.

A short description of data set [1]: pH in water. Format: physicochemical. Particulars: aqueous solution.
For data set [2] the following is noted: humans; cited from earlier work.

The compound nicotinamide riboside [NR] displayed a pH in water in data set [1] of 4.0.

In the case of `Cn1c(=O)c2c(n(C)c1=O)n(C)c(=O)n2C` [TH, theacrine], the safe daily use result in data set [2] is given as “up to 300 mg/day”.

`C[C@@H](O)CC(=O)OC(CO)CO` [KM, 1,3 Dihydroxypropan-2-yl (R)-3-hydroxybutanoate]: the pH in water in data set [1] is listed as 4.5.
